Assay results: PubChem BioAssay (NCI)
Values joined by “and” are separate entries in the source; they are usually repeats but may differ in a detail not shown here. Identical values can stand only once.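 Dose response: 5 concentrations. Exposure: 48 h. Format: 96-well plates. Endpoint: linear interpolation; highest concentration if not reached. GI50 is the concentration that inhibits growth by half. At the TGI there is no net growth.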

Columns and labels:
Assay in all cases: NCI-60 cell line screen, 48 h
A498 renal = system: A498 renal
CAKI-1 renal = system: CAKI-1 renal
COLO 205 colon = system: COLO 205 colon
HOP-92 NSCLC = system: HOP-92 NSCLC
IGROV1 ovarian = system: IGROV1 ovarian
K-562 leukemia = system: K-562 leukemia
KM12 colon = system: KM12 colon
LOX IMVI melanoma = system: LOX IMVI melanoma
M14 melanoma = system: M14 melanoma
MCF7 breast = system: MCF7 breast
OVCAR-3 ovarian = system: OVCAR-3 ovarian
SK-OV-3 ovarian = system: SK-OV-3 ovarian

SMILES | TGI (A498 renal) | TGI (CAKI-1 renal) | TGI (COLO 205 colon) | TGI (HOP-92 NSCLC) | TGI (IGROV1 ovarian) | TGI (K-562 leukemia) | TGI (KM12 colon) | TGI (LOX IMVI melanoma) | TGI (M14 melanoma) | TGI (MCF7 breast) | TGI (OVCAR-3 ovarian) | TGI (SK-OV-3 ovarian) | GI50 (A498 renal) | GI50 (CAKI-1 renal) | GI50 (K-562 leukemia)
O=C(/C=C/c1cccc(Oc2ccccc2)c1)NCc1ccc(C(=O)NCc2ccccc2)cc1 | > 100 µM | > 100 µM | > 100 µM | > 100 µM | > 100 µM | > 100 µM | > 100 µM | > 100 µM | > 100 µM | > 100 µM | > 100 µM | 29.8 µM | – | – | –
CC(C)(C)OC(=O)NC1CC2(C=C(Br)C(=O)C(Br)=C2)OC1=O (configuration not stated) | 47.4 µM | 11.6 µM | 13.4 µM | 30.1 µM | 31.2 µM | 13.5 µM | 45.1 µM | 33.4 µM | 20.2 µM | 31.6 µM | 32.5 µM | 32.1 µM | – | – | –
c1ccc(C(NCC2CCO2)(c2ccccc2)c2ccccc2)cc1 (configuration not stated) | 36.1 µM | 55.2 µM | > 100 µM | 32.8 µM | 32.7 µM | > 100 µM | 28.8 µM | 95.5 µM | 32.1 µM | 31.7 µM | 34.5 µM | 34.2 µM | – | – | –
CC[C@@]1(O)C(=O)OCc2c1cc1n(c2=O)Cc2c-1nc1ccccc1c2/C=N\NC(=O)C1CCCN1 (some centres not stated) | 2.58 µM | > 23.5 µM | > 100 µM | 21.2 µM | > 96.6 µM | > 100 µM | > 44.6 µM | 2.67 µM | 5.81 µM | 18.4 µM | 43.5 µM | > 100 µM | – | – | –
NC(N)=NC(N)=Nc1ccc(S(=O)(=O)O)cc1 | > 100 µM | > 100 µM | > 100 µM | > 100 µM | > 100 µM | > 100 µM | > 100 µM | > 100 µM | > 100 µM | > 100 µM | > 100 µM | > 100 µM | – | – | –
O=C(O)CCS/C(=C\C(SCCC(=O)O)c1ccc(Cl)cc1)c1ccc(Cl)cc1 (configuration not stated) | 39 µM | > 100 µM | 43.4 µM | > 100 µM | > 100 µM | > 100 µM | 65.4 µM | 63.1 µM | > 100 µM | 60.9 µM | 49 µM | > 100 µM | – | – | –
CSc1ccc(-c2cc(-c3nc4ccccc4[nH]3)no2)cc1 | > 100 µM | 70 µM | > 100 µM | > 100 µM | > 100 µM | 84.4 µM | 68.5 µM | 80.1 µM | 56.2 µM | 33.8 µM | 55.7 µM | > 100 µM | – | – | –
O=C(c1nc2ccc([N+](=O)[O-])cc2[nH]c1=O)C(O)c1ccc2c(c1)OCO2 (configuration not stated) | > 100 µM | > 100 µM | > 100 µM | > 100 µM | > 100 µM | > 100 µM | > 93 µM | > 100 µM | > 100 µM | > 100 µM | > 100 µM | > 100 µM | – | – | –
CCN(CC)CCCNc1ccc2nc(C)n3c4ccc(O)cc4c(=O)c1c23 | 24.5 µM | 23.6 µM | 20.3 µM | 11.4 µM | 9.79 µM | 37.2 µM | 17.4 µM | 3.71 µM | 21.5 µM | 17.6 µM | 21.6 µM | 25.2 µM | – | – | –
Nc1[nH]nc(Nc2ccc(Cl)cc2)c1P(=O)(c1ccccc1)c1ccccc1 | > 100 µM | > 100 µM | > 100 µM | 70.8 µM | 55.2 µM | > 100 µM | 37.5 µM | > 100 µM | 54.6 µM | > 100 µM | 41.5 µM | > 100 µM | – | – | –
Nc1nc(Cl)c(N)c(NCC2(CO)CC2)n1 | > 100 µM | > 100 µM | > 100 µM | > 100 µM | > 100 µM | > 100 µM | > 100 µM | > 100 µM | > 100 µM | > 100 µM | > 100 µM | > 100 µM | – | – | –
CN(Cc1cnc2nc(N)nc(N)c2n1)c1ccc(C(=O)N[C@@H](CCC(=O)O)C(=O)O)cc1 | 116 µM | 200 µM and > 250 µM | 249 µM and > 250 µM | 229 µM and > 250 µM | 212 µM and > 250 µM | 206 µM and > 250 µM | 239 µM and > 250 µM | > 250 µM | 240 µM and > 250 µM | > 250 µM | 217 µM and > 250 µM | > 250 µM | 1.05 µM | – | –
C=CCC1CC(n2cc(C)c(=O)[nH]c2=O)OC1CO[Si](C)(C)C(C)(C)C (configuration not stated) | 34.5 µM | 31.8 µM | 27 µM | 31 µM | 23.4 µM | 24.3 µM | 35 µM | 26.2 µM | 33.5 µM | 29.1 µM | 31 µM | 29.2 µM | – | – | –
C=C(C(=O)O)[C@@H]1C[C@@H]2O[C@H]1[C@@H](O)[C@@H](C)CCCC(C)=CCC[C@@]2(C)O | > 100 µM | > 100 µM | > 100 µM | > 100 µM | > 100 µM | > 100 µM | > 100 µM | > 100 µM | > 100 µM | > 100 µM | > 100 µM | > 100 µM | – | 37.2 µM and > 100 µM | 32.3 µM and 83.5 µM
Cc1ccc(NC=O)c(-c2c(N)[nH]c(=S)[nH]c2=O)c1 | > 100 µM | > 100 µM | > 100 µM | > 100 µM | > 100 µM | > 100 µM | > 100 µM | > 100 µM | > 100 µM | > 100 µM | > 100 µM | 91.7 µM | – | – | –
CN(C(=O)Cc1ccccc1)n1cnn(CC(=O)OC(C)(C)C)c1=S | > 10 µM | > 10 µM | > 10 µM | > 10 µM | > 10 µM | > 10 µM | > 10 µM | > 10 µM | > 10 µM | > 10 µM | > 10 µM | > 10 µM | – | – | –
Clc1ccc(C2=NN=C3C(c4ccccc4)=Nc4ccccc4N3C2)cc1 | > 100 µM | > 100 µM | > 100 µM | > 93.2 µM | > 100 µM | > 100 µM | > 100 µM | > 100 µM | > 25.8 µM | > 100 µM | > 20.1 µM | > 100 µM | – | – | –
O=S(=O)(Nc1nc2ccccc2nc1Nc1ccc2ccccc2c1)c1ccccc1 | > 100 µM | 99 µM | 26.3 µM | 51.3 µM | > 57.9 µM | > 100 µM | > 59.3 µM | 48.8 µM | > 57.2 µM | > 100 µM | 8.96 µM | > 100 µM | – | – | –
O=C(O)C(O)C(O)C(=O)O (configuration not stated) | > 100 µM | > 100 µM | > 100 µM | > 100 µM | > 100 µM | > 100 µM | > 100 µM | > 100 µM | > 100 µM | > 100 µM | > 100 µM | > 100 µM | – | – | –
CN1C/C(=C\c2cccs2)C(O)/C(=C/c2cccs2)C1 (configuration not stated) | > 100 µM | > 100 µM | > 100 µM | > 100 µM | > 100 µM | > 100 µM | > 100 µM | > 100 µM | > 100 µM | > 100 µM | > 100 µM | > 100 µM | – | – | –
Cc1nc(C)c(N2CCN(S(=O)(=O)N(Cc3ccccc3)Cc3ccccc3)CC2)c(=O)[nH]1 | > 75.7 µM | > 47.9 µM | > 100 µM | > 78.1 µM | > 100 µM | > 100 µM | > 100 µM | > 100 µM | > 100 µM | > 100 µM | > 100 µM | > 54.2 µM | – | – | –
CC(NC(=O)NC(C)(C)C)NC(=O)C(N)CC(=O)O (configuration not stated) | > 100 µM | > 100 µM | > 100 µM | > 100 µM | > 100 µM | > 100 µM | > 100 µM | > 100 µM | > 100 µM | > 100 µM | > 100 µM | > 100 µM | – | – | –
